≈ marks a conversion by molar mass, not a printed value.
Key:
[1] = test system: Peptococcus magnus KY 017; test: MIC, in vitro antibacterial activity (standard strains); format: cell-based; conditions: Finegoldia magna, KY017; 10^6 cells/ml; Gram +; read-out: MIC
B. fragilis 0558 = test: as above; format: cell-based, Bacteroides fragilis; conditions: Bacteroides fragilis, 0558; 10^6 cells/ml; Gram -; read-out: MIC
[2] = test system: S. aureus IID 670 (Terajima); test: as above; format: cell-based, Staphylococcus aureus; conditions: Staphylococcus aureus, IID670; 10^6 cells/ml; Gram +; read-out: MIC
F. necrophorum S-45 = test: as above; format: cell-based; conditions: Fusobacterium necrophorum, S45; 10^6 cells/ml; Gram -; read-out: MIC
P. maltophilia GIFU 2491 = test: as above; format: cell-based; conditions: Stenotrophomonas maltophilia, GIFU2491; 10^6 cells/ml; Gram -; read-out: MIC
C. perfringens KYA 13123 = test: microbe, parasite or virus in culture; format: cell-based; conditions: Clostridium perfringens, KYA13123
[3] = test system: B. thetaiotaomicron (0661); test: MIC, in vitro antibacterial activity (standard strains); format: cell-based; conditions: Bacteroides thetaiotaomicron; 10^6 cells/ml; Gram -; read-out: MIC
S. pneumoniae IID 552 = test: as above; format: cell-based; conditions: Streptococcus pneumoniae, IID552; 10^6 cells/ml; Gram +; read-out: MIC
[4] = test system: Fusobacterium mortiferum 4249; test: as above; format: cell-based; conditions: Fusobacterium mortiferum, 4249; 10^6 cells/ml; Gram -; read-out: MIC
[5] = test system: Veillonella parvula KYA 10790; test: as above; format: cell-based; conditions: Veillonella parvula, KYA10790; 10^6 cells/ml; Gram -; read-out: MIC
[6] = test system: Acinetobacter anitratus IID 876; test: as above; format: cell-based; conditions: Acinetobacter calcoaceticus, IID876; 10^6 cells/ml; Gram -; read-out: MIC
E. coli ML 4707 = test: as above; format: cell-based, Escherichia coli; conditions: Escherichia coli, ML4707, 10^6 cells/ml; Gram -; Table 1; read-out: MIC
[7] = test system: Proteus vulgaris IFO 3167; test: as above; format: cell-based; conditions: Proteus vulgaris, IFO3167; 10^6 cells/ml; Gram -; read-out: MIC
[8] = test system: Bacteroides fragilis GM 7000; test: as above; format: cell-based; conditions: Bacteroides fragilis, GM7000; 10^6 cells/ml; Gram -; read-out: MIC
S. aureus Smith = test: as above; format: cell-based, Staphylococcus aureus; conditions: Staphylococcus aureus; 10^6 cells/ml; Gram +; read-out: MIC
[9] = test system: Salmonella enteritidis IID 604; test: as above; format: cell-based; conditions: Salmonella enterica; 10^6 cells/ml; Gram -; read-out: MIC
[10] = test system: Staphylococcus aureus 209 P; test: as above; format: cell-based; conditions: Staphylococcus aureus, 209P; 10^6 cells/ml; Gram +; read-out: MIC
[11] = test system: Enterobacter cloacae IID 977; test: as above; format: cell-based; conditions: Enterobacter cloacae, IID977; 10^6 cells/ml; Gram -; read-out: MIC
B. fragilis 25285 = test: as above; format: cell-based, Bacteroides fragilis; conditions: Bacteroides fragilis, 25285; 10^6 cells/ml; Gram -; read-out: MIC
P. cepacia GIFU 518 = test: as above; format: cell-based; conditions: Burkholderia cepacia, GIFU518
[12] = test system: Klebsiella pneumoniae KY(GN)6445; test: as above; format: cell-based; conditions: Klebsiella pneumoniae; 10^6 cells/ml; Gram -; read-out: MIC
B. distasonis 8503 = test: as above; format: cell-based; conditions: Parabacteroides distasonis, 8503; 10^6 cells/ml; Gram -; read-out: MIC
[13] = test system: Eubacterium lentum GAI 5242; test: as above; format: cell-based; conditions: Eggerthella lenta, GAI5242; 10^6 cells/ml; Gram +; read-out: MIC
Pst. micros UPI 5464-1 = test: as above; format: cell-based; conditions: Parvimonas micra, UPI54641; 10^6 cells/ml; Gram +; read-out: MIC
E. coli ATCC 10536 = test: as above; format: cell-based, Escherichia coli; conditions: Escherichia coli, ATCC10536; 10^6 cells/ml; Gram -; read-out: MIC
C. ramosum = test: as above; format: cell-based; conditions: Thomasclavelia ramosa; 10^6 cells/ml; Gram +; read-out: MIC
[14] = test system: Yersinia enterocolitica IID 981; test: as above; format: cell-based; conditions: Yersinia enterocolitica, IID981; 10^6 cells/ml; Gram -; read-out: MIC
P. aeruginosa IID 1210 = test: as above; format: cell-based, Pseudomonas aeruginosa; conditions: Pseudomonas aeruginosa, IID1210; 10^6 cells/ml; Gram -; read-out: MIC
B. vulgatus KYA 29327 = test: as above; format: cell-based; conditions: Phocaeicola vulgatus, KYA29327; 10^6 cells/ml; Gram -; read-out: MIC
Shigella sonnei IID 969 = test: as above; format: cell-based; conditions: Shigella sonnei, IID969; 10^6 cells/ml; Gram -; read-out: MIC
Description: Minimal inhibitory concentrations (MICs) were determined in accordance with the method recommended by Japan Society of Chemotherapy.

S. pyogenes IID 692 = test: as above; format: cell-based, Streptococcus pyogenes; conditions: Streptococcus pyogenes, IID692; 10^6 cells/ml; Gram +; read-out: MIC
[15] = test system: Alcaligenes faecalis 0114002; test: as above; format: cell-based; conditions: Alcaligenes faecalis, 0114002; 10^6 cells/ml; Gram -; read-out: MIC

Compound	MIC [1] [µg/mL]	MIC (B. fragilis 0558) [µg/mL]	MIC [2] [µg/mL]	MIC (F. necrophorum S-45) [µg/mL]	MIC (P. maltophilia GIFU 2491) [µg/mL]	MIC (C. perfringens KYA 13123) [µg/mL]	MIC [3] [µg/mL]	MIC (S. pneumoniae IID 552) [µg/mL]	MIC [4] [µg/mL]	MIC [5] [µg/mL]	MIC [6] [µg/mL]	MIC (E. coli ML 4707) [µg/mL]	MIC [7] [µg/mL]	MIC [8] [µg/mL]	MIC (S. aureus Smith) [µg/mL]	MIC [9] [µg/mL]	MIC [10] [µg/mL]	MIC [11] [µg/mL]	MIC (B. fragilis 25285) [µg/mL]	MIC (P. cepacia GIFU 518) [µg/mL]	also measured
C[C@H]1CN(c2c(F)cc3c(=O)c(C(=O)O)cn(CCF)c3c2Cl)C[C@H]1N (relative stereo) [Example 27, 7-(cis-3-Amino-4-methyl-1-pyrrolidinyl)-8-chloro-6-fluoro-1-(2-fluoroethyl)-1,4-dihydro-4-oxo-3-quinolinecarboxylic acid]	0.78 (≈ 2.02 µM)	1.56 (≈ 4.04 µM)	0.39 (≈ 1.01 µM)	1.56 (≈ 4.04 µM)	1.56 (≈ 4.04 µM)	0.39 (≈ 1.01 µM)	3.13 (≈ 8.11 µM)	0.78 (≈ 2.02 µM)	1.56 (≈ 4.04 µM)	0.39 (≈ 1.01 µM)	1.56 (≈ 4.04 µM)	0.05 (≈ 0.13 µM)	0.05 (≈ 0.13 µM)	1.56 (≈ 4.04 µM)	0.2 (≈ 0.518 µM)	0.1 (≈ 0.259 µM)	0.2 (≈ 0.518 µM)	0.1 (≈ 0.259 µM)	1.56 (≈ 4.04 µM)	0.78 (≈ 2.02 µM)	MIC [12]: 0.1 µg/mL (≈ 0.259 µM); MIC (B. distasonis 8503): 6.25 µg/mL (≈ 16.2 µM); MIC [13]: 0.78 µg/mL (≈ 2.02 µM); MIC (Pst. micros UPI 5464-1): 0.39 µg/mL (≈ 1.01 µM); MIC (E. coli ATCC 10536): 0.05 µg/mL (≈ 0.13 µM); MIC (C. ramosum): 25 µg/mL (≈ 64.8 µM); MIC [14]: 0.1 µg/mL (≈ 0.259 µM); MIC (P. aeruginosa IID 1210): 6.25 µg/mL (≈ 16.2 µM); MIC (B. vulgatus KYA 29327): 3.13 µg/mL (≈ 8.11 µM); MIC (Shigella sonnei IID 969): 0.78 µg/mL (≈ 2.02 µM); MIC (S. pyogenes IID 692): 0.78 µg/mL (≈ 2.02 µM); MIC [15]: 0.78 µg/mL (≈ 2.02 µM)
CC1CN(c2c(F)cc3c(=O)c(C(=O)O)cn(C4CC4)c3c2Cl)CC1CN (stereo not drawn) [Example 1, 7-(3-Aminomethyl-4-methyl-1-pyrrolidinyl)-8-chloro-1-cyclopropyl-6-fluoro-1,4-dihydro-4-oxo-3-quinolinecarboxylic acid]	≤ 0.05	≤ 0.05	0.025 (≈ 0.0635 µM)	0.1 (≈ 0.254 µM)	0.1 (≈ 0.254 µM)	≤ 0.05	0.1 (≈ 0.254 µM)	0.0125 (≈ 0.0317 µM)	≤ 0.05	0.1 (≈ 0.254 µM)	0.05 (≈ 0.127 µM)	0.025 (≈ 0.0635 µM)	0.05 (≈ 0.127 µM)	≤ 0.1	0.0125 (≈ 0.0317 µM)	0.05 (≈ 0.127 µM)	0.0125 (≈ 0.0317 µM)	0.05 (≈ 0.127 µM)	≤ 0.05	0.39 (≈ 0.99 µM)	MIC [12]: 0.05 µg/mL (≈ 0.127 µM); MIC (B. distasonis 8503): 0.39 µg/mL (≈ 0.99 µM); MIC [13]: 0.2 µg/mL (≈ 0.508 µM); MIC (Pst. micros UPI 5464-1): 0.39 µg/mL (≈ 0.99 µM); MIC (E. coli ATCC 10536): 0.025 µg/mL (≈ 0.0635 µM); MIC (C. ramosum): 0.2 µg/mL (≈ 0.508 µM); MIC [14]: 0.05 µg/mL (≈ 0.127 µM); MIC (P. aeruginosa IID 1210): 0.78 µg/mL (≈ 1.98 µM); MIC (B. vulgatus KYA 29327): 0.1 µg/mL (≈ 0.254 µM); MIC (Shigella sonnei IID 969): 0.025 µg/mL (≈ 0.0635 µM); MIC (S. pyogenes IID 692): 0.025 µg/mL (≈ 0.0635 µM); MIC [15]: 0.2 µg/mL (≈ 0.508 µM)
CC1CN(c2c(F)cc3c(=O)c(C(=O)O)cn(C4CC4)c3c2Cl)CC1N (stereo not drawn) [Example 7, 7-(3-Amino-4-methyl-1-pyrrolidinyl)-8-chloro-1-cyclopropyl-6-fluoro-1,4-dihydro-4-oxo-3-quinolinecarboxylic acid]	0.05 (≈ 0.132 µM)	0.05 (≈ 0.132 µM)	0.05 (≈ 0.132 µM)	0.2 (≈ 0.527 µM)	0.05 (≈ 0.132 µM)	0.1 (≈ 0.263 µM)	0.2 (≈ 0.527 µM)	0.1 (≈ 0.263 µM)	0.2 (≈ 0.527 µM)	0.1 (≈ 0.263 µM)	0.025 (≈ 0.0658 µM)	0.0125 (≈ 0.0329 µM)	0.0125 (≈ 0.0329 µM)	0.1 (≈ 0.263 µM)	0.05 (≈ 0.132 µM)	0.025 (≈ 0.0658 µM)	0.025 (≈ 0.0658 µM)	0.05 (≈ 0.132 µM)	0.05 (≈ 0.132 µM)	0.2 (≈ 0.527 µM)	MIC [12]: 0.0125 µg/mL (≈ 0.0329 µM); MIC (B. distasonis 8503): 0.39 µg/mL (≈ 1.03 µM); MIC [13]: 0.1 µg/mL (≈ 0.263 µM); MIC (Pst. micros UPI 5464-1): 0.1 µg/mL (≈ 0.263 µM); MIC (E. coli ATCC 10536): 0.0125 µg/mL (≈ 0.0329 µM); MIC (C. ramosum): 0.78 µg/mL (≈ 2.05 µM); MIC [14]: 0.025 µg/mL (≈ 0.0658 µM); MIC (P. aeruginosa IID 1210): 0.39 µg/mL (≈ 1.03 µM); MIC (B. vulgatus KYA 29327): 0.1 µg/mL (≈ 0.263 µM); MIC (Shigella sonnei IID 969): 0.0063 µg/mL (≈ 0.0166 µM); MIC (S. pyogenes IID 692): 0.1 µg/mL (≈ 0.263 µM); MIC [15]: 0.1 µg/mL (≈ 0.263 µM)
